Test results: US20220257592A1, “METHODS OF TREATING CANCER” (HOFFMANN-LA ROCHE INC., priority 2019, published 2022)

Assay: Clinical trial safety, ALKA, STARTRK-1, STARTRK-2, STARTRK-NG (interim, N=355)
Settings: for Balance disorder / Confusional state / Dizziness / Headache / Paresthesia: CNS metastases
[1] = no prior CNS irradiation (N=48)
[2] = among the 32 patients with hyperuricemic adverse reactions
[3] = among the 36 patients with mood disorders
[4] = among the 51 patients with sleep disturbances
[5] = among the 96 patients with cognitive impairment
[6] = among the 136 patients who experienced dizziness
[7] = clinically relevant adverse reactions in ≤10% of patients
[8] = may be underestimated, 4.5% had no post-treatment liver function tests
[9] = patients with at least one post-baseline ECG assessment
[10] = worsening from baseline, NCI CTCAE v5.0

CN1CCN(c2ccc(C(=O)Nc3n[nH]c4ccc(Cc5cc(F)cc(F)c5)cc34)c(NC3CCOCC3)c2)CC1 [Entrectinib, N-[5-(3,5-difluorobenzyl)-1H-indazol-3-yl]-4-(4-methyl-piperazin-1-yl)-2-(tetrahydro-pyran-4-ylamino)-benzamide]
CHF, median time to onset (12 patients with CHF, range: 11 days to 12 months): 2 months
Congestive heart failure (355 patients): 3.4%
Congestive heart failure, Grade 3 (355 patients): 2.3%
Hyperuricemia reported as adverse reactions with symptoms, as well as elevated uric acid levels (355 patients): 9%
Increased ALT of any grade (355 patients): 36%
Increased AST of any grade (355 patients): 42%
Balance disorder [1]: 4%
Confusional state [1]: 2%
Dizziness [1]: 31%
Headache [1]: 13%
Paresthesia [1]: 6%
Balance disorder (prior CNS irradiation (N=90)): 13%
Confusional state (prior CNS irradiation (N=90)): 11%
Dizziness (prior CNS irradiation (N=90)): 38%
Headache (prior CNS irradiation (N=90)): 21%
Paresthesia (prior CNS irradiation (N=90)): 20%
Abdominal pain, All Grades (N = 355): 16%
Arthralgia, All Grades (N = 355): 21%
Ataxia, All Grades (N = 355): 17%
Back pain, All Grades (N = 355): 12%
Cognitive impairment, All Grades (N = 355): 27%
Constipation, All Grades (N = 355): 46%
Cough, All Grades (N = 355): 24%
Decreased appetite, All Grades (N = 355): 13%
Dehydration, All Grades (N = 355): 10%
Diarrhea, All Grades (N = 355): 35%
Dizziness, All Grades (N = 355): 38%
Dysesthesia, All Grades (N = 355): 34%
Dysgeusia, All Grades (N = 355): 44%
Dyspnea, All Grades (N = 355): 30%
Edema, All Grades (N = 355): 40%
Fatigue, All Grades (N = 355): 48%
Headache, All Grades (N = 355): 18%
Hypotension, All Grades (N = 355): 18%
Increased weight, All Grades (N = 355): 25%
Lung infection, All Grades (N = 355): 10%
Mood disorders, All Grades (N = 355): 10%
Muscular weakness, All Grades (N = 355): 12%
Myalgia, All Grades (N = 355): 28%
Nausea, All Grades (N = 355): 34%
Pain in extremity, All Grades (N = 355): 11%
Peripheral sensory neuropathy, All Grades (N = 355): 18%
Pyrexia, All Grades (N = 355): 21%
Rash, All Grades (N = 355): 11%
Sleep (sleep disturbances), All Grades (N = 355): 14%
Urinary tract infection, All Grades (N = 355): 13%
Vision disorders, All Grades (N = 355): 21%
Vomiting, All Grades (N = 355): 24%
Abdominal pain, Grade ≥3 (N = 355, Grades 3-5): 0.6%
Arthralgia, Grade ≥3 (N = 355, Grades 3-5): 0.6%
Ataxia, Grade ≥3 (N = 355, Grades 3-5): 0.8%
Back pain, Grade ≥3 (N = 355, Grades 3-5): 1%
Cognitive impairment, Grade ≥3 (N = 355, Grades 3-5): 4.5%
Constipation, Grade ≥3 (N = 355, Grades 3-5): 0.6%
Cough, Grade ≥3 (N = 355, Grades 3-5): 0.3%
Decreased appetite, Grade ≥3 (N = 355, Grades 3-5): 0.3%
Dehydration, Grade ≥3 (N = 355, Grades 3-5): 1.1%
Diarrhea, Grade ≥3 (N = 355, Grades 3-5): 2.0%
Dizziness, Grade ≥3 (N = 355, Grades 3-5): 0.8%
Dysesthesia, Grade ≥3 (N = 355, Grades 3-5): 0.3%
Dysgeusia, Grade ≥3 (N = 355, Grades 3-5): 0.3%
Edema, Grade ≥3 (N = 355, Grades 3-5): 1.1%
Fatigue, Grade ≥3 (N = 355, Grades 3-5): 5%
Headache, Grade ≥3 (N = 355, Grades 3-5): 0.3%
Hypotension, Grade ≥3 (N = 355, Grades 3-5): 2.8%
Increased weight, Grade ≥3 (N = 355, Grades 3-5): 7%
Mood disorders, Grade ≥3 (N = 355, Grades 3-5): 0.6%
Muscular weakness, Grade ≥3 (N = 355, Grades 3-5): 0.8%
Myalgia, Grade ≥3 (N = 355, Grades 3-5): 1.1%
Nausea, Grade ≥3 (N = 355, Grades 3-5): 0.3%
Pain in extremity, Grade ≥3 (N = 355, Grades 3-5): 0.3%
Peripheral sensory neuropathy, Grade ≥3 (N = 355, Grades 3-5): 1.1%
Pyrexia, Grade ≥3 (N = 355, Grades 3-5): 0.8%
Rash, Grade ≥3 (N = 355, Grades 3-5): 0.8%
Sleep (sleep disturbances), Grade ≥3 (N = 355, Grades 3-5): 0.6%
Urinary tract infection, Grade ≥3 (N = 355, Grades 3-5): 2.3%
Vision disorders, Grade ≥3 (N = 355, Grades 3-5): 0.8%
Vomiting, Grade ≥3 (N = 355, Grades 3-5): 0.8%
CHF resolved following interruption or discontinuation and medical management (among the 12 patients with CHF): 50%
entrectinib discontinued due to CHF (among the 12 patients with CHF): 17%
entrectinib interrupted due to CHF (among the 12 patients with CHF): 50%
Dose interruption due to hyperuricemia [2]: 6%
Dose reduction due to hyperuricemia [2]: 6%
Required urate-lowering medication [2]: 34%
Discontinuation due to mood disorders [3]: no patients discontinued
Dose interruption due to mood disorders [3]: 6%
Dose reduction due to mood disorders [3]: 6%
Discontinuation due to sleep disturbances [4]: no patients discontinued
Dose reduction due to sleep disturbances [4]: 6%
Discontinued entrectinib due to cognitive adverse reactions [5]: 1%
Dose interruption due to cognitive adverse reactions [5]: 18%
Dose reduction due to cognitive adverse reactions [5]: 13%
Discontinued entrectinib due to dizziness [6]: 0.7%
Dose interruption due to dizziness [6]: 7%
Dose reduction due to dizziness [6]: Ten
Grade 3 dizziness [6]: 2.2%
Dysphagia [7]: 10%
Fall [7]: 8%
Fractures [7]: 6%
Hypoxia [7]: 4.2%
Pleural effusion [7]: 8%
Pulmonary embolism [7]: 3.9%
QT prolongation [7]: 3.1%
Syncope [7]: 3.9%
Increased AST or ALT leading to dose interruptions (first value of 'respectively'): 0.8%
Cognitive impairment: amnesia (human, in vivo): 2.5%
Cognitive impairment: aphasia (human, in vivo): 2.3%
Cognitive impairment: cognitive disorders (human, in vivo): 8%
Cognitive impairment: confusional state (human, in vivo): 7%
Cognitive impairment: delirium (human, in vivo): 0.8%
Cognitive impairment: disturbance in attention (human, in vivo): 4.8%
Cognitive impairment: hallucinations (human, in vivo): 1.1%
Cognitive impairment: memory impairment (human, in vivo): 3.7%
Cognitive impairment: mental status changes (human, in vivo): 2%
Discontinuation due to hyperuricemia (human, in vivo): No patients discontinued
Dose interruption due to anemia (human, in vivo): 3.1%
Dose interruption due to cognitive disorder (human, in vivo): 2%
Dose interruption due to diarrhea (human, in vivo): 2.8%
Dose interruption due to dizziness (human, in vivo): 2.5%
Dose interruption due to dyspnea (human, in vivo): 2.3%
Dose interruption due to fatigue (human, in vivo): 3.7%
Dose interruption due to increased blood creatinine (human, in vivo): 4%
Dose interruption due to nausea (human, in vivo): 2.3%
Dose interruption due to neutropenia (human, in vivo): 2%
Dose interruption due to pneumonia (human, in vivo): 2.3%
Dose interruption due to pyrexia (human, in vivo): 2.8%
Dose interruptions due to adverse reactions (human, in vivo): 46%
Dose reduction due to anemia (human, in vivo): 1.7%
Dose reduction due to dizziness (human, in vivo): 3.9%
Dose reduction due to fatigue (human, in vivo): 2.3%
Dose reduction due to increased blood creatinine (human, in vivo): 3.1%
Dose reduction due to increased weight (human, in vivo): 1.4%
Dose reductions due to adverse reactions (human, in vivo): 29%
Entrectinib discontinued due to increased AST or ALT (human, in vivo): 0.8%
Grade 3 cognitive adverse reactions (human, in vivo): 4.5%
Grade 3 mood disorders (human, in vivo): 0.6%
Grade 3 or 4 adverse reactions (human, in vivo): 60%
Grade 3 or 4 cognitive disorders (human, in vivo): 4.5%
Grade 3 or 4 diarrhea (human, in vivo): 2%
Grade 3 or 4 dyspnea (human, in vivo): 6%
Grade 3 or 4 fatigue/asthenia (human, in vivo): 5%
Grade 3 or 4 hypotension (human, in vivo): 2.8%
Grade 3 or 4 hypoxia (human, in vivo): 3.4%
Grade 3 or 4 increased weight (human, in vivo): 7%
Grade 3 or 4 lung infection (human, in vivo): 5%
Grade 3 or 4 pleural effusion (human, in vivo): 3.1%
Grade 3 or 4 pulmonary embolism (human, in vivo): 3.4%
Grade 3 or 4 syncope (human, in vivo): 2.5%
Grade 3 or 4 urinary tract infection (human, in vivo): 2.5%
Grade 3 sleep disturbances (human, in vivo): 0.6%
Hyperuricemia resolved following urate-lowering medication without interruption or dose reduction (human, in vivo): 73%
Incidence of CNS adverse reactions in patients with and without CNS metastases (human, in vivo): similar
Mood disorders: agitation (human, in vivo): 2%
Mood disorders: anxiety (human, in vivo): 4.8%
Mood disorders: depression (human, in vivo): 2.8%
Most common adverse reactions (≥20%) (human, in vivo): fatigue, constipation, dysgeusia, edema, dizziness, diarrhea, nausea, dysesthesia, dyspnea, myalgia, cognitive impairment, increased weight, cough, vomiting, pyrexia, arthralgia and vision disorders
Myocarditis in the absence of CHF (human, in vivo): 0.3%
Permanent discontinuation due to an adverse reaction (human, in vivo): 9%
Permanent discontinuation due to cardio-respiratory arrest (human, in vivo): < 1%
Permanent discontinuation due to dyspnea (human, in vivo): < 1%
Permanent discontinuation due to fatigue (human, in vivo): < 1%
Permanent discontinuation due to pneumonia (human, in vivo): < 1%
Serious adverse reaction: dyspnea (human, in vivo): 3.7%
Serious adverse reaction: pleural effusion (human, in vivo): 3.4%
Serious adverse reaction: pneumonia (human, in vivo): 3.9%
Serious adverse reaction: pulmonary embolism (human, in vivo): 2.3%
Serious adverse reaction: pyrexia (human, in vivo): 2%
Serious adverse reaction: respiratory failure (human, in vivo): 2%
Serious adverse reaction: sepsis (human, in vivo): 2.5%
Serious adverse reactions (human, in vivo): 39%
Sleep disturbances: hypersomnia (human, in vivo): 1.1%
Sleep disturbances: insomnia (human, in vivo): 7%
Sleep disturbances: sleep disorder (human, in vivo): 0.3%
Sleep disturbances: somnolence (human, in vivo): 7%
Vision changes, Grade 1 (human, in vivo): 82%
Vision changes, Grade 2 (human, in vivo): 14%
Vision changes, Grade 3 (human, in vivo): 0.8%
Vision disorders: blurred vision (human, in vivo): 8.7%
Vision disorders: cataract (human, in vivo): 1.1%
Vision disorders: diplopia (human, in vivo): 3.1%
Vision disorders: photophobia (human, in vivo): 5.1%
Vision disorders: photopsia (human, in vivo): 1.3%
Vision disorders: visual impairment (human, in vivo): 2%
Vision disorders: vitreous floaters (human, in vivo): 1.1%
Grade 4 hyperuricemia (including one patient who died due to tumor lysis syndrome): 1.7%
Grade 3-4 increased ALT [8]: 2.8%
Grade 3-4 increased AST [8]: 2.5%
Cognitive impairment symptoms occurred within 3 months of starting entrectinib (of the 96 patients with cognitive impairment): 77%
QTcF interval >500 ms [9]: 0.6%
QTcF interval prolongation of >60 ms after starting entrectinib [9]: 3.1%
Mood disorders, median time to onset (range: 1 day to 9 months): 1 month
Increased ALT, median time to onset (range: 1 day to 9.2 months): 2 weeks
Increased AST, median time to onset (range: 1 day to 29.5 months): 2 weeks
Completed suicide (reported 11 days after treatment had ended): One
Grade 4 myocarditis after one dose of entrectinib (resolved after discontinuation and high-dose corticosteroids): One
Increased AST or ALT leading to dose reductions (second value of 'respectively'): 0.8%
Laboratory: Anemia, All Grades (worsening from baseline): 67%
Laboratory: Anemia, Grade 3 or 4 (worsening from baseline): 9%
Laboratory: Hyperkalemia, All Grades (worsening from baseline): 25%
Laboratory: Hyperkalemia, Grade 3 or 4 (worsening from baseline): 1.5%
Laboratory: Hypernatremia, All Grades (worsening from baseline): 35%
Laboratory: Hypernatremia, Grade 3 or 4 (worsening from baseline): 0.9%
Laboratory: Hyperuricemia, All Grades (worsening from baseline): 52%
Laboratory: Hyperuricemia, Grade 3 or 4 (worsening from baseline): 10%
Laboratory: Hypoalbuminemia, All Grades (worsening from baseline): 28%
Laboratory: Hypoalbuminemia, Grade 3 or 4 (worsening from baseline): 2.9%
Laboratory: Hypocalcemia, All Grades (worsening from baseline): 34%
Laboratory: Hypocalcemia, Grade 3 or 4 (worsening from baseline): 1.8%
Laboratory: Hypophosphatemia, All Grades (worsening from baseline): 30%
Laboratory: Hypophosphatemia, Grade 3 or 4 (worsening from baseline): 7%
Laboratory: Increased ALT, All Grades (worsening from baseline): 38%
Laboratory: Increased ALT, Grade 3 or 4 (worsening from baseline): 2.9%
Laboratory: Increased AST, All Grades (worsening from baseline): 44%
Laboratory: Increased AST, Grade 3 or 4 (worsening from baseline): 2.7%
Laboratory: Increased alkaline phosphatase, All Grades (worsening from baseline): 25%
Laboratory: Increased alkaline phosphatase, Grade 3 or 4 (worsening from baseline): 0.9%
Laboratory: Increased amylase, All Grades (worsening from baseline): 26%
Laboratory: Increased amylase, Grade 3 or 4 (worsening from baseline): 5.4%
Laboratory: Increased lipase, All Grades (worsening from baseline): 28%
Laboratory: Increased lipase, Grade 3 or 4 (worsening from baseline): 10%
Laboratory: Lymphopenia, All Grades (worsening from baseline): 40%
Laboratory: Lymphopenia, Grade 3 or 4 (worsening from baseline): 12%
Laboratory: Neutropenia, All Grades (worsening from baseline): 28%
Laboratory: Neutropenia, Grade 3 or 4 (worsening from baseline): 7%
Laboratory: Hyperglycemia, Grade 3 or 4 [10]: 3.8%
Laboratory: Increased creatinine, All Grades [10]: 73%
Laboratory: Increased creatinine, Grade 3 or 4 [10]: 2.1%
